# System: H3K27 methylation in G401 cell
# Assay: ELISA (H3K27 methylation) assay
# Format: cell-based
# Details: Homo sapiens, G-401; ELISA Qualified assay (H3K27 methylation); read-out: (c) IC50 (μM), ELISA Qualified
# Description: ELISA (H3K27 Methylation) Assay
row,IC50 [µM],SMILES
1,0.445,"Fc1ccc(-c2cnc(NCc3c(F)ccc4c3CCO4)n3cnnc23)c(Cl)c1 [Example 157, 8-(2-chloro-4-fluorophenyl)-N-((5-fluoro-2,3-dihydrobenzofuran-4-yl)methyl)-[1,2,4]triazolo[4,3-c]pyrimidin-5-amine]"
2,0.192,"Fc1ccc2c(c1CNc1ncc(F)c3nncn13)CCO2 [Example 235, 8-fluoro-N-((5-fluoro-2,3-dihydrobenzofuran-4-yl)methyl)-[1,2,4]triazolo[4,3-c]pyrimidin-5-amine]"
3,0.0424,"CN(C)Cc1ccc(-c2cnc(NCc3c(F)ccc4c3CCO4)n3cnnc23)cc1 [Example 23, 8-(4-((dimethylamino)methyl)phenyl)-N-((5-fluoro-2,3-dihydrobenzofuran-4-yl)methyl)-[1,2,4]triazolo[4,3-c]pyrimidin-5-amine]"
4,0.002,"Cc1cn(-c2cnc(NCc3c(F)ccc4c3CCO4)n3cnnc23)cn1 [Example 233, N-((5-fluoro-2,3-dihydrobenzofuran-4-yl)methyl)-8-(4-methyl-1H-imidazol-1-yl)-[1,2,4]triazolo[4,3-c]pyrimidin-5-amine]"
5,0.0103,"Fc1ccncc1-c1cnc(NCc2c(F)ccc3c2CCO3)n2cnnc12 [Example 47, N-((5-fluoro-2,3-dihydrobenzofuran-4-yl)methyl)-8-(4-fluoropyridin-3-yl)-[1,2,4]-triazolo[4,3-c]pyrimidin-5-amine]"
6,0.0104,"Fc1ccc2c(c1CNc1ncc(-c3ccnn3C3CC3)c3nncn13)CCO2 [Example 192, 8-(1-cyclopropyl-1H-pyrazol-5-yl)-N-((5-fluoro-2,3-dihydrobenzofuran-4-yl)methyl)-[1,2,4]triazolo[4,3-c]pyrimidin-5-amine]"
7,0.0025,"Cc1nn(CCO)cc1-c1cnc(NCc2c(F)ccc3c2CCO3)n2cnnc12 [Example 190, 2-(4-(5-(((5-fluoro-2,3-dihydrobenzofuran-4-yl)methyl)amino)-[1,2,4]triazolo[4,3-c]pyrimidin-8-yl)-3-methyl-1H-pyrazol-1-yl)ethanol]"
8,0.0025,"Cc1c(-c2cnc(NCc3c(F)ccc4c3CCO4)n3cnnc23)ccnc1CF [Example 182, N-((5-fluoro-2,3-dihydrobenzofuran-4-yl)methyl)-8-(2-(fluoromethyl)-3-methylpyridin-4-yl)-[1,2,4]triazolo[4,3-c]pyrimidin-5-amine]"
9,0.0263,"CN(C)C(=O)c1ccc(-c2cnc(NCc3c(F)ccc4c3CCO4)n3cnnc23)cn1 [Example 140, 5-(5-(((5-fluoro-2,3-dihydrobenzofuran-4-yl)methyl)amino)-[1,2,4]triazolo[4,3-c]pyrimidin-8-yl)-N,N-dimethylpicolinamide]"
10,0.0045,"Cc1nc(OC2CC2)ncc1-c1cnc(NCc2c(F)ccc3c2CCO3)n2cnnc12 [Example 225, 8-(2-cyclopropoxy-4-methylpyrimidin-5-yl)-N-((5-fluoro-2,3-dihydrobenzofuran-4-yl)methyl)-[1,2,4]triazolo[4,3-c]pyrimidin-5-amine]"
11,0.0036,"Cc1ccc(-c2cnc(NCc3c(F)ccc4c3CCO4)n3cnnc23)c(C(F)F)n1 [Example 201, 8-(2-(difluoromethyl)-6-methylpyridin-3-yl)-N-((5-fluoro-2,3-dihydrobenzofuran-4-yl)methyl)-[1,2,4]triazolo[4,3-c]pyrimidin-5-amine]"
12,0.0426,"Cc1noc(C)c1-c1cnc(NCc2c(F)ccc3c2CCO3)n2cnnc12 [Example 71, 8-(3,5-dimethylisoxazol-4-yl)-N-((5-fluoro-2,3-dihydrobenzofuran-4-yl)methyl)-[1,2,4]triazolo[4,3-c]pyrimidin-5-amine]"
13,0.0263,"CCOc1cc(C)c(-c2cnc(NCc3c(F)ccc4c3CCO4)n3cnnc23)cn1 [Example 196, 8-(6-ethoxy-4-methylpyridin-3-yl)-N-((5-fluoro-2,3-dihydrobenzofuran-4-yl)methyl)-[1,2,4]triazolo[4,3-c]pyrimidin-5-amine]"
14,0.0225,"Fc1ccc2c(c1CNc1ncc(-c3ccc(N4CCSCC4)nc3)c3nncn13)CCO2 [Example 91, N-((5-fluoro-2,3-dihydrobenzofuran-4-yl)methyl)-8-(6-thiomorpholinopyridin-3-yl)-[1,2,4]triazolo[4,3-c]pyrimidin-5-amine]"
15,0.0013,"Cc1cc(C(=O)N2CCCC2)ncc1-c1cnc(NCc2c(F)ccc3c2CCO3)n2cnnc12 [Example 130, (5-(5-(((5-fluoro-2,3-dihydrobenzofuran-4-yl)methyl)amino)-[1,2,4]triazolo[4,3-c]pyrimidin-8-yl)-4-methylpyridin-2-yl)(pyrrolidin-l-yl)methanone]"
16,0.0134,"CS(=O)(=O)c1ccc(-c2cnc(NCc3c(F)ccc4c3CCO4)n3cnnc23)cc1 [Example 37, N-((5-fluoro-2,3-dihydrobenzofuran-4-yl)methyl)-8-(4-(methylsulfonyl)phenyl)-[1,2,4]triazolo[4,3-c]pyrimidin-5-amine]"
17,0.135,"NC(=O)c1ccccc1-c1cnc(NCc2c(F)ccc3c2CCO3)n2cnnc12 [Example 122, 2-(5-(((5-fluoro-2,3-dihydrobenzofuran-4-yl)methyl)amino)-[1,2,4]triazolo[4,3-c]pyrimidin-8-yl)benzamide]"
18,0.0097,"CN1CCN(C(=O)c2ccc(-c3cnc(NCc4c(F)ccc5c4CCO5)n4cnnc34)cc2)CC1 [Example 72, (4-(5-(((5-fluoro-2,3-dihydrobenzofuran-4-yl)methyl)amino)-[1,2,4]triazolo[4,3-c]pyrimidin-8-yl)phenyl)(4-methylpiperazin-1-yl)methanone]"
19,0.0133,"Cc1cncc(-c2cnc(NCc3c(F)ccc4c3CCO4)n3cnnc23)c1 [Example 232, N-((5-fluoro-2,3-dihydrobenzofuran-4-yl)methyl)-8-(5-methylpyridin-3-yl)-[1,2,4]triazolo[4,3-c]pyrimidin-5-amine]"

# Further lines, the molecule ahead of its results:
row,SMILES,IC50 [µM]
1,"FC1(F)CCN(CCc2ccc(-c3cnc(NCc4cccc5c4CCO5)n4cnnc34)cn2)C1 [Example 100, 8-(6-(2-(3,3-difluoropyrrolidin-1-yl)ethyl)pyridin-3-yl)-N-((2,3-dihydrobenzofuran-4-yl)methyl)-[1,2,4]triazolo[4,3-c]pyrimidin-5-amine]",0.181
2,"O=C1CN(CCc2ccc(-c3cnc(NCc4cccc5c4CCO5)n4cnnc34)cn2)CCN1 [Example 109, 4-(2-(5-(5-(((2,3-dihydrobenzofuran-4-yl)methyl)amino)-[1,2,4]triazolo[4,3-c]pyrimidin-8-yl)pyridin-2-yl)ethyl)piperazin-2-one]",1.21
3,"CN(C)C(=O)c1ccc(-c2cnc(NCc3cccc4c3CCO4)n3cnnc23)cn1 [Example 95, 5-(5-(((2,3-dihydrobenzofuran-4-yl)methyl)amino)-[1,2,4]triazolo[4,3-c]pyrimidin-8-yl)-N,N-dimethylpicolinamide]",0.158
4,"Cc1cc(-c2cnc(NCc3cccc4c3CCO4)n3cnnc23)cnc1N1CCN(C)CC1 [Example 36, N-((2,3-dihydrobenzofuran-4-yl)methyl)-8-(5-methyl-6-(4-methylpiperazin-1-yl)pyridin-3-yl)-[1,2,4]triazolo[4,3-c]pyrimidin-5-amine]",0.0683
5,"O=CN1CCN(CCc2ccc(-c3cnc(NCc4cccc5c4CCO5)n4cnnc34)cn2)CC1 [Example 107, 4-(2-(5-(5-(((2,3-dihydrobenzofuran-4-yl)methyl)amino)-[1,2,4]triazolo[4,3-c]pyrimidin-8-yl)pyridin-2-yl)ethyl)piperazine-1-carbaldehyde]",0.161
6,O=S(=O)(NCCO)c1ccc(-c2cnc(NCc3cccc4c3CCO4)n3cnnc23)cc1 [Example 40],1.34
7,"Cn1nccc1-c1cnc(NCc2cccc3c2CCO3)n2cnnc12 [Example 152, N-((2,3-dihydrobenzofuran-4-yl)methyl)-8-(1-methyl-1H-pyrazol-5-yl)-[1,2,4]triazolo[4,3-c]pyrimidin-5-amine]",0.008
8,"CN(C)S(=O)(=O)c1ccc(-c2cnc(NCc3cccc4c3CCO4)n3cnnc23)cc1 [Example 15, 4-(5-(((2,3-dihydrobenzofuran-4-yl)methyl)amino)-[1,2,4]triazolo[4,3-c]pyrimidin-8-yl)-N,N-dimethylbenzenesulfonamide]",0.0198
9,"COc1ccc(-c2cnc(NCc3cccc4c3CCO4)n3cnnc23)cn1 [Example 21, N-((2,3-dihydrobenzofuran-4-yl)methyl)-8-(6-methoxypyridin-3-yl)-[1,2,4]triazolo[4,3-c]pyrimidin-5-amine]",0.15
10,"CC1CCCN1c1ccc(-c2cnc(NCc3cccc4c3CCO4)n3cnnc23)cn1 (stereo not shown) [Example 96, N-((2,3-dihydrobenzofuran-4-yl)methyl)-8-(6-(2-methylpyrrolidin-1-yl)pyridin-3-yl)-[1,2,4]triazolo[4,3-c]pyrimidin-5-amine]",0.329
11,"Clc1ccccc1-c1cnc(NCc2cccc3c2CCO3)n2cnnc12 [Example 32, 8-(2-chlorophenyl)-N-((2,3-dihydrobenzofuran-4-yl)methyl)-[1,2,4]triazolo[4,3-c]pyrimidin-5-amine]",0.115
12,"CN1CCC(S(=O)(=O)c2ccc(-c3cnc(NCc4cccc5occc45)n4cnnc34)cc2)CC1 [Example 220, N-(benzofuran-4-ylmethyl)-8-(4-((1-methylpiperidin-4-yl)sulfonyl)phenyl)-[1,2,4]triazolo[4,3-c]pyrimidin-5-amine]",0.467
13,"O=C1OCCN1c1ccc(-c2cnc(NCc3cccc4c3CCO4)n3cnnc23)cn1 [Example 117, 3-(5-(5-(((2,3-dihydrobenzofuran-4-yl)methyl)amino)-[1,2,4]triazolo[4,3-c]pyrimidin-8-yl)pyridin-2-yl)oxazolidin-2-one]",0.48
14,"c1cc(CNc2ncc(-c3ccc(C4CC4)nc3)c3nncn23)c2c(c1)OCC2 [Example 65, 8-(6-cyclopropylpyridin-3-yl)-N-((2,3-dihydrobenzofuran-4-yl)methyl)-[1,2,4]triazolo[4,3-c]pyrimidin-5-amine]",0.11
15,"Cn1cc(-c2cnc(NCc3cccc4c3CCO4)n3cnnc23)cn1 [Example 25, N-((2,3-dihydrobenzofuran-4-yl)methyl)-8-(1-methyl-1H-pyrazol-4-yl)-[1,2,4]triazolo[4,3-c]pyrimidin-5-amine]",0.406

# Reference: patent US11207325B2, “Triazolopyrimidine compounds and uses thereof” (Novartis AG, priority 2014, dated 2021)
